Where two headings read alike, the source gives them in different places.
Columns and labels:
Cytosine deaminase (CDA) [1] = conditions: read-out: Free CDA / Km; free enzyme; Tris-HCl 50 mM pH 7.0, 37 °C
From the text: deamination, released 5-fluorouracil on Cytosine deaminase (CDA)

Cytosine deaminase (CDA) [2] = conditions: read-out: Free CDA / Km; free enzyme; Tris-HCl 50 mM pH 7.0, 37 °C; remark: listed apart in the source

| Km (Cytosine deaminase (CDA) [1]) | Km (Cytosine deaminase (CDA) [2]) | SMILES |
| --- | --- | --- |
| 220 µM |  | Nc1nc(=O)[nH]cc1F [5-fluorocytosine] |
|  | 360 µM | Nc1cc[nH]c(=O)n1 [Cytosine] |

Source: article PMC9830863, “Aspergillus Niger thermostable Cytosine deaminase-dextran conjugates with enhanced structure stability, proteolytic resistance, and Antiproliferative activity” (BMC Microbiology, 2023)
